Measurements from ChEMBL document CHEMBL1149470, “Identification and structure-based optimization of novel dihydropyrones as potent HCV RNA polymerase inhibitors” (Bioorg Med Chem Lett, 2006).
pIC50: −log10 of the molar value. Activity calls are given as the source filed them. No cut-off for these calls is given here.

What was measured:
[1] = target: RNA-directed RNA polymerase (Hepacivirus hominis, UniProt O39930); test: Inhibitory activity against HCV 1b BK NS5B deltaC21 RNA polymerase; parameters: species or system Hepatitis C virus subtype 1b
Hepatitis C virus = test: Antiviral activity against HCV 1b in Huh7 cell line upto 10 uM by replicon assay; assay type: functional, cell-based; details: Hepacivirus hominis; genotype 1b; Huh-7

Chain of RNA-directed RNA polymerase (O39930 whole entry): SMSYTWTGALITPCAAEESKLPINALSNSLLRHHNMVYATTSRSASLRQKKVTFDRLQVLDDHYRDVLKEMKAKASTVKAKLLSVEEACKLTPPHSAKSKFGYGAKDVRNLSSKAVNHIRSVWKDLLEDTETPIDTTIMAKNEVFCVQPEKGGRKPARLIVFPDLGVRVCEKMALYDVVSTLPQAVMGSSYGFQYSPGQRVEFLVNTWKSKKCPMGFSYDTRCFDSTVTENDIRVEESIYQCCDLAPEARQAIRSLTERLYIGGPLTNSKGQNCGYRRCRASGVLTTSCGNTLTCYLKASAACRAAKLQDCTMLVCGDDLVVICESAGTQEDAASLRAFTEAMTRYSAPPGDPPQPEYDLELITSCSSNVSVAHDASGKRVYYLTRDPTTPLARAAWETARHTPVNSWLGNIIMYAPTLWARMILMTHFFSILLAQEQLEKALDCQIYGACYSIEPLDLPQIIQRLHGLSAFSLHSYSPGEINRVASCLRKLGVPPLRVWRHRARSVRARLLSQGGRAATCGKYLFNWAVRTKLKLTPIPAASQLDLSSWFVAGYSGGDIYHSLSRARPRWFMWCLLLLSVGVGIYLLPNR

SMILES	pIC50 [1]	Activity (Hepatitis C virus)
COc1ccc(CCC2(C3CCCC3)CC(=O)CC(=O)O2)cc1F (configuration not stated)	6.05	inactive
O=C1CC(=O)OC(CCc2ccc(O)cc2)(C2CCC2)C1 (configuration not stated)	4.03	inactive
O=C1CC(=O)OC(CCc2ccc(O)cc2)(C2CCCC2)C1 (configuration not stated)	5.09	inactive
O=C1CC(=O)OC(CCc2cccc(Cl)c2)(C2CCCC2)C1 (configuration not stated)	5.30	inactive
O=C1CC(=O)OC(CCc2ccccc2)(C2CCCC2)C1 (configuration not stated)	4.32	inactive
CC(C)Oc1ccc(CCC2(C3CCCC3)CC(=O)CC(=O)O2)cc1F (configuration not stated)	–	inactive
CCOc1ccc(CCC2(C3CCCC3)CC(=O)CC(=O)O2)cc1 (configuration not stated)	5.54	inactive
COc1ccc(CCC2(C3CCCC3)CC(=O)C(Sc3nncn3C)=C(O)O2)cc1Cl (configuration not stated)	7.42	inactive
COc1ccc(CCC2(C3CCCC3)CC(=O)C(Sc3nccn3C)=C(O)O2)cc1Cl (configuration not stated)	6.85	inactive
COc1ccc(CCC2(C3CCCC3)CC(=O)CC(=O)O2)cc1Cl (configuration not stated)	6.00	inactive
CCOc1ccc(CCC2(C3CCCC3)CC(=O)CC(=O)O2)cc1F (configuration not stated)	6.10	inactive
CCc1cccc(CCC2(C3CCCC3)CC(=O)CC(=O)O2)c1 (configuration not stated)	5.44	inactive
O=C1CC(=O)OC(CCc2ccc(O)cc2)(C2CCCCC2)C1 (configuration not stated)	4.28	inactive
COc1ccc(CCC2(C3CCCC3)CC(=O)C(Sc3ccc(O)cc3)=C(O)O2)cc1Cl (configuration not stated)	6.89	inactive
CC(C)c1ccc(CCC2(C3CCCC3)CC(=O)CC(=O)O2)cc1 (configuration not stated)	5.37	inactive
CC1(CCc2ccc(O)cc2)CC(=O)CC(=O)O1 (configuration not stated)	< 4.00	inactive
CCCC1(CCc2ccc(OC)cc2)CC(=O)CC(=O)O1 (configuration not stated)	< 4.30	inactive
CC(C)c1cccc(CCC2(C3CCCC3)CC(=O)CC(=O)O2)c1 (configuration not stated)	5.74	inactive
Cc1cc(SC2=C(O)OC(CCc3ccc(O)cc3)(C3CCCC3)CC2=O)c(C(C)(C)C)cc1N (configuration not stated)	6.03	inactive
CC(C)Oc1ccc(CCC2(C3CCCC3)CC(=O)CC(=O)O2)cc1 (configuration not stated)	5.77	inactive
COc1ccc(CCC2(C3CCCC3)CC(=O)C(Sc3nnnn3C)=C(O)O2)cc1Cl (configuration not stated)	6.55	inactive
Cc1cccc(CCC2(C3CCCC3)CC(=O)CC(=O)O2)c1 (configuration not stated)	4.64	inactive
COc1ccc(CCC2(C3CCCC3)CC(=O)CC(=O)O2)cc1 (configuration not stated)	5.01	inactive
COc1ccc(CCC2(C3CCCC3)CC(=O)C(Sc3ccccc3)=C(O)O2)cc1Cl (configuration not stated)	6.25	inactive
